From PubChem BioAssay (NCI)
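These data come from cells grown in 96-well plates and exposed to compound for 48 hours at five concentrations. GI50: concentration for 50% inhibition of growth. TGI is the concentration that stops growth completely.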

Columns and labels:
Assay in all cases: growth of human tumour cells (NCI), 48 h
[1] = system: 786-0 renal
[2] = system: A498 renal
[3] = system: A549 NSCLC
[4] = system: ACHN renal
[5] = system: BT-549 breast
[6] = system: CCRF-CEM leukemia
[7] = system: COLO 205 colon
[8] = system: DU-145 prostate
[9] = system: EKVX NSCLC
[10] = system: HCC-2998 colon
[11] = system: HCT-15 colon
[12] = system: HL-60(TB) leukemia
[13] = system: HOP-62 NSCLC
[14] = system: HOP-92 NSCLC
[15] = system: HS 578T breast
[16] = system: HT29 colon
[17] = system: IGROV1 ovarian
[18] = system: K-562 leukemia
[19] = system: KM12 colon
[20] = system: LOX IMVI melanoma
[21] = system: M14 melanoma
[22] = system: MALME-3M melanoma
[23] = system: MDA-MB-231 breast
[24] = system: MDA-MB-435
[25] = system: MOLT-4 leukemia
[26] = system: NCI-H226 lung
[27] = system: NCI-H23 lung
[28] = system: NCI-H460 lung
[29] = system: NCI-H522 lung
[30] = system: NCI/ADR-RES ovarian
[31] = system: OVCAR-3 ovarian
[32] = system: OVCAR-4 ovarian
[33] = system: OVCAR-5 ovarian
[34] = system: OVCAR-8 ovarian
[35] = system: PC-3 prostate
[36] = system: RPMI-8226 leukemia
[37] = system: RXF 393 renal
[38] = system: SF-268 CNS
[39] = system: SF-295 CNS
[40] = system: SF-539 CNS
[41] = system: SK-MEL-2 melanoma
[42] = system: SK-MEL-28 melanoma
[43] = system: SK-MEL-5 melanoma
[44] = system: SK-OV-3 ovarian
[45] = system: SN12C renal
[46] = system: SNB-19 CNS
[47] = system: SNB-75 CNS
[48] = system: SR leukemia
[49] = system: SW-620 colon
[50] = system: T-47D breast
[51] = system: TK-10 renal
[52] = system: U251 CNS
[53] = system: UACC-257 melanoma
[54] = system: UACC-62 melanoma
[55] = system: UO-31 renal

In the case of `[2H]c1nc(C)nc([2H])c1-c1cc(NC[C@@H](C)c2cccc3c(C(=O)NC)ccnc23)ncn1`, the GI50 [1] is reported as over 100 µM, the TGI [1] is reported as over 100 µM and the GI50 [2] is reported as over 100 µM. The TGI [2] was over 100 µM, the GI50 [3] was over 100 µM and the TGI [3] was over 100 µM. It also gave a GI50 [4] of over 100 µM, a TGI [4] of over 100 µM and a GI50 [5] of over 100 µM. It also gave a TGI [5] of over 100 µM, a GI50 [6] of 65.1 µM and a TGI [6] of over 100 µM. For the same compound, the GI50 [7] was over 100 µM, the TGI [7] was over 100 µM and the GI50 [8] was over 100 µM. The TGI [8] was over 100 µM, the GI50 [9] was over 100 µM and the TGI [9] was over 100 µM. The GI50 [10] was over 100 µM, the TGI [10] was over 100 µM and the GI50 [11] was over 100 µM. The TGI [11] was over 100 µM, the GI50 [12] was over 100 µM and the TGI [12] was over 100 µM. For the same compound, the GI50 [13] was over 100 µM, the TGI [13] was over 100 µM and the GI50 [14] was over 100 µM. The TGI [14] was over 100 µM, the GI50 [15] was over 100 µM and the TGI [15] was over 100 µM. The GI50 [16] was over 100 µM, the TGI [16] was over 100 µM and the GI50 [17] was over 100 µM. The TGI [17] was over 100 µM, the GI50 [18] was 80.6 µM and the TGI [18] was over 100 µM. The GI50 [19] was over 100 µM, the TGI [19] was over 100 µM and the GI50 [20] was over 100 µM. It also gave a TGI [20] of over 100 µM, a GI50 [21] of over 100 µM and a TGI [21] of over 100 µM. It also gave a GI50 [22] of over 100 µM, a TGI [22] of over 100 µM and a GI50 [23] of over 100 µM. It also gave a TGI [23] of over 100 µM, a GI50 [24] of 32.7 µM and a TGI [24] of over 100 µM. It also gave a GI50 [25] of over 100 µM, a TGI [25] of over 100 µM and a GI50 [26] of over 100 µM. The TGI [26] was over 100 µM, the GI50 [27] was over 100 µM and the TGI [27] was over 100 µM. The GI50 [28] was over 100 µM, the TGI [28] was over 100 µM and the GI50 [29] was 46.4 µM. It also gave a TGI [29] of over 100 µM, a GI50 [30] of over 100 µM and a TGI [30] of over 100 µM. It also gave a GI50 [31] of over 100 µM, a TGI [31] of over 100 µM and a GI50 [32] of over 100 µM. For the same compound, the TGI [32] was over 100 µM, the GI50 [33] was over 100 µM and the TGI [33] was over 100 µM. The GI50 [34] was over 100 µM, the TGI [34] was over 100 µM and the GI50 [35] was over 100 µM. The TGI [35] was over 100 µM, the GI50 [36] was 78.5 µM and the TGI [36] was over 100 µM. For the same compound, the GI50 [37] was over 100 µM, the TGI [37] was over 100 µM and the GI50 [38] was over 100 µM. It also gave a TGI [38] of over 100 µM, a GI50 [39] of over 100 µM and a TGI [39] of over 100 µM. For the same compound, the GI50 [40] was over 100 µM, the TGI [40] was over 100 µM and the GI50 [41] was over 100 µM. It also gave a TGI [41] of over 100 µM, a GI50 [42] of over 100 µM and a TGI [42] of over 100 µM. For the same compound, the GI50 [43] was 60.1 µM, the TGI [43] was over 100 µM and the GI50 [44] was over 100 µM. It also gave a TGI [44] of over 100 µM, a GI50 [45] of over 100 µM and a TGI [45] of over 100 µM. For the same compound, the GI50 [46] was over 100 µM, the TGI [46] was over 100 µM and the GI50 [47] was over 100 µM. For the same compound, the TGI [47] was over 100 µM, the GI50 [48] was 63.1 µM and the TGI [48] was over 100 µM. For the same compound, the GI50 [49] was over 100 µM, the TGI [49] was over 100 µM and the GI50 [50] was 29 µM. For the same compound, the TGI [50] was over 100 µM, the GI50 [51] was over 100 µM and the TGI [51] was over 100 µM. The GI50 [52] was over 100 µM, the TGI [52] was over 100 µM and the GI50 [53] was over 100 µM. For the same compound, the TGI [53] was over 100 µM, the GI50 [54] was 90.9 µM and the TGI [54] was over 100 µM. For the same compound, the GI50 [55] was over 100 µM and the TGI [55] was over 100 µM.
